Experimental data: patent publication US20250082781A1, “METHODS OF LOWERING BLOOD GLUCOSE AND TREATING TYPE 2 DIABETES BY ACTIVATION OF PDE4D3” (Salk Institute for Biological Studies, priority 2021, published 2025)

Legend:
blood glucose levels = experiment: Blood glucose levels in DIO mice; format: in vivo, mouse; details: for blood glucose levels: 0.5 mg/kg FGF1 s.c.
Protocol: Mice were kept in 12 h light/dark cycle in a temperature-controlled environment. Mice had free access to food and water unless noted otherwise. C57/B6 mice background was used unless noted otherwise. C57BL/6J and ob/ob (000632-B6. Cg-Lepob/J) male mice were obtained from Jackson Laboratory. PDE4D knock-out mice (034588-UCD) were obtained from MMRRC. For diet-induced obesity (DIO) studies, mice were fed a high fat diet (HFD) (60% fat, F3282; Bio-Serv) for minimum of 12 weeks to induce insulin resistance when diet-induced obese model is used. Insulin levels and blood glucose levels were monitored to confirm insulin resistance. To generate adipose-specific FGFR1 deletion, adiponectin-cre mice (B6; FVB-Tg (Adipoq-cre)1Evdr/J; Stock: 010803) were crossed to Fgfr1 flox/flox (B6.129S4-Fgfr1tm5.1Sor/J; Stock: 00767) mice. For AAV mediated expression of target proteins in adipose tissue, 5×10E+11 genomic copies of AAV were injected via tail vein or retro-orbital route.
Recombinant FGF1 (rFGF1) was dissolved in phosphate-buffered saline (PBS) at a concentration of 0.2 mg/ml and was injected subcutaneously at a 0.5 mg kg^−1 dose. Blood glucose was monitored at indicated time points after injection. For initial measurements (2-4 h) food was removed after injection to exclude any indirect effects stemming from anorexigenic effects of FGF1. PDE4 inhibitor roflumilast stock in DMSO was diluted at 1 mg/ml in 30% captisol, pH 10 and delivered to mice thorough oral gavage at 5 mg kg^−1 dose. PDE3 inhibitor cilostamide stock in DMSO was diluted at 2 mg/ml in 30% captisol and delivered through intraperitoneal injection at 10 mg kg^−1 dose.

adipose tissue explants = experiment: Ex vivo lipolysis in adipose explants of treated mice; design: species or system mouse
Protocol: For in vitro lipolysis assay, cells were washed with PBS and media were changed to full growth media 1 day before experiment. Cells were serum starved for 2 h and placed in KRBH buffer (30 mM HEPES, 120 mM NaCl, 4 mM KH2PO4, 1 mM MgSO4, 0.75 mM CaCl2), and 10 mM NaHCO3) with 2% fatty acid free BSA and 5 mM glucose. FGF1 was added 10 min before induction of lipolysis with 100 nM isoprotenol (ISO). Inhibitors were added 30 min prior to FGF1 treatment unless otherwise noted. Media were collected and cells were lysed in protein extraction buffer. FFAs were measured in the media using a commercial kit (Wako-NEFAHR2) and normalized to protein concentration. For ex vivo lipolysis, the assay was modified from a published protocol (Funicello et al., 2007). Briefly, approximately 0.1 gram of adipose tissue was excised, weighed and kept in cold PBS until treatment and control tissues were collected. Tissues were cut into small pieces and incubated in same KRBH buffer as described above for 4 h. FFAs were measured and normalized by the explant weights.

oleic acid turnover = experiment: 3H-labeled oleic acid turnover (in vivo lipolysis); design: species or system mouse
Protocol: FIGS. 1A-1I: FGF1 suppresses adipose lipolysis. (FIG. 1A) Ex-vivo lipolysis in gonadal white adipose tissue (gWAT) explants from wildtype (F1WT) and FGF1 KO (FIKO) mice 6 h after refeeding. Data are represented as mean±SEM (n=4, *p<0.05). (FIG. 1B) Lipolysis in mouse SVF-derived adipocytes measured by the cumulative release of free fatty acids (FFAs) into the media over 4 h. Cells were pretreated with vehicle (PBS) or FGF1 (100 ng/ml) for 10 min prior to the induction of lipolysis with 1 nM isoproterenol (ISO). Data are represented as mean±SEM (n=3, *p<0.05, **p<0.01). (FIG. 1C) Dose response of FGF1-induced suppression of lipolysis in 3T3-L1 adipocytes. Cells were pretreated with the indicated doses of FGF1 for 10 min prior to the induction of lipolysis with 100 nM isoproterenol (ISO), and the cumulative release of FFAs over 4 h was measured. Data are represented as mean±SEM (n=3, **p<0.01, ***p<0.001). […] Plasma radioactivity was measured by scintillation counting and normalized to t=1 min. Fractional oleic acid turnover rate was calculated by linear regression of natural log transformed data (adR1WT vehicle n=5, FGF1 n=4; adR1KO vehicle n=4, FGF1 n=5). […] Quantification of pHSL-S660 normalized to total HSL is shown in the right panel. […] Quantification of pHSL-S660 normalized to total HSL (right panel). […]

Substance: FGF1: Recombinant fibroblast growth factor 1 protein, dissolved in PBS, injected subcutaneously
- blood glucose levels (blood glucose levels; DIO adR1KO mice): failed to affect adR1KO mice
- ability of FGF1 to modulate glucose levels under inhibition of PDE3 (blood glucose levels; DIO mice, FGF1 0.5 mg/kg, cilostamide 10 mg/kg): failed to affect the ability of FGF1 to modulate glucose levels
- blood glucose levels (blood glucose levels; DIO wild type mice (adR1WT)): rapidly decreased blood glucose levels
- blood glucose (blood glucose levels; HFD-fed PDE4D KO mice, FGF1 0.5 mg/kg): failed to lower blood glucose
- FGF1 blood glucose lowering with adAAV-driven expression of PDE4D3 in adipose tissue (blood glucose levels; PDE4D KO DIO mice 4 weeks after adAAV, FGF1 0.5 mg/kg): restored
- ability of FGF1 to reduce blood glucose levels with roflumilast pretreatment (blood glucose levels; ad lib fed DIO mice, FGF1 0.5 mg/kg, roflumilast 5 mg/kg): lost
- lipolysis in brown adipose tissue (adipose tissue explants; BAT explants, chow-fed mice, 6 h after FGF1 0.5 mg/kg): did not affect lipolysis in brown adipose tissue
- FGF1 suppression of lipolysis in adipose explants under PDE4 inhibition (adipose tissue explants; DIO mice gavaged with PDE4 inhibitor 1 h prior to FGF1 injection): blocked the ability of FGF1 to suppress lipolysis
- ex vivo lipolysis (adipose tissue explants; gWAT and iWAT explants, DIO adR1WT vs adR1KO, 2 h after FGF1 0.5 mg/kg): suppressed
- oleic acid turnover (oleic acid turnover; adR1KO mice, FGF1 pretreatment): not affected
- fractional turnover rate of oleic acid (oleic acid turnover; adR1WT mice, FGF1 0.5 mg/kg s.c. 6 h before infusion): reduced
